Data from US20020028851A1, “Guanylhydrazones and their use to treat inflammatory conditions” (priority 1994, published 2002).

How the values were obtained:
LD50 = format: in vivo
Lewis rats = assay: Focal cerebral infarction (middle cerebral artery severing); format: in vivo; details: 1 mg/Kg i.v. one hour before artery severed; 24 hours; p<0.05 vs controls
Experimental: Lewis rats (male, 270-300 g) were given food and water ad libi tum before and after surgery. Animals were anesthetized with ketamine (120 mg/Kg i.m.), allowed to breathe spontaneously, and body temperature maintained at 35.5-36.5° C. with a heating blanket. The ventral neck and area between the right eye and ear was shaved. A midline ventral cervical incision was used to expose the left common carotid artery (CCA) which was dissected free from surrounding tissue with preservation of the vagus nerve. A loop of 4-0 silk was then placed around the artery for future manipulation. The right common carotid artery was then exposed and permanently occluded with double 4-0 silk ligatures. […]
Twenty-four hours after MCA severing, animals were anesthetized and decapitated and the brains were quickly removed without perfusion and coronally sectioned at 1 mm intervals with a brain slicer for analysis. […] Slices were then placed in buffered 10% formalin and infarct area determined by planimetry on projected images of photographed brain slices. Infarct size for an individual animal was calculated by summing the infarct area present on each brain slice and dividing by the sum of hemisphere area for all slices for that animal (expressed as a percentage of hemisphere area for each slice). Animals were studied in groups of 10, and the data expressed as average stroke volume for the group.

RAW 264.7 cells [1] = assay: Whole cell inhibition assay for arginine uptake; format: cell-based, murine
MIP-1α = assay: Cytokine production by LPS/γIFN-stimulated human PBMC: MIP-1α; format: cell-based; details: γIFN+LPS, 18 hr
From the text: Similar results concerning a variety of cytokines in addition to TNF, e.g., IL-6 and Macrophage Inflammatory Proteins-1α and -1β (MIP-1α and MIP-1β) were obtained using human peripheral blood as a source of monocytes. Human peripheral blood mononuclear cells (PBMC) were isolated using “FICOLL®”-based methods and plated in standard 6-well culture plates at a concentration of 10^6/well and allowed to adhere for from 2 hr to overnight whereupon non-adherent cells were washed out and the medium was then replaced with medium containing the compound to be tested. One hour later, the medium was supplemented so as to contain 25 U/ml γIFN and 0.1 μg/ml LPS and the cultures incubated a further 18 hr. The medium was then collected, and cell debris removed by centrifugation. This conditioned supernatant was then assayed for the presence of cytokines using the standard methodologies of L929 cell cytotoxicity bioassay and immunoassay (ELISA).

RAW 264.7 cells [2] = assay: Whole cell inhibition assay for NO (nitrite) output; format: cell-based, murine; details: for no2/no3 % suppression of induced production: γIFN+LPS, 18 hours
Experimental: RAW 264.7 cells are plated in microculture wells at 1×10^6/ml in RPMI 1640 with 10% FBS and otherwise standard culture conditions and allowed to adhere for 5 hours. They are then activated with 25 U/ml γIFN and 0.1 μg/ml LPS in the presence of test inhibitors. The urea concentration present in the supernatant media, after 18 hours of culture, is determined by a colorimetric blood urea nitrogen diacetylmonoxime assay performed on an aliquot of the culture supernatant (Sigma Chem. Co., St. Louis, Mo.) and inhibition is expressed as the percentage urea compared to that of a parallel control culture treated identically except that the concentration of added inhibitor is zero.
The production of nitrite is determined by assay of the same tissue culture supernatant by means of a calorimetric assay. Briefly, 4 parts of test solution containing 1% (w/v) sulfanilamide, 0.1% naphthylethylenediamine di-HCl (Griess Reagent), 2.5% H3PO4 and one part media are mixed, incubated for 10 minutes and the absorbance at 560 nm determined. The nitrite concentrations are interpolated from reference curves prepared using NaNO2.
Various concentrations of the test compounds are included in the media of the stimulated RAW 264.7 cells in culture. The concentration of urea and/or nitrite after 18 hours of activated culture is determined and compared to the uninhibited control value obtained from at least one parallel culture. The fractional reduction is calculated for each concentration of inhibitor and the IC50 (concentration giving 50% reduction) is interpolated. Compounds were dissolved in media with mild heat (60° C.). Those with limited solubility were dissolved in base. The concentration of stock solutions of those compounds which were not completely soluble was determined by OD280.
This section describes experiments that measure the concentration of Compound No. 14 needed to inhibit arginine uptake and NO output. The techniques employed were described in section 7.1 supra.

## CC(=NNC(=N)N)c1cc(NC(=O)CCCCCCCCC(=O)Nc2cc(C(C)=NNC(=N)N)cc(C(C)=NNC(=N)N)c2)cc(C(C)=NNC(=N)N)c1.Cl.Cl.Cl.Cl [Compound 14, N,N′-bis(3,5-diacetyl-phenyl)decanediamide tetrakis(amidinohydrazone) tetrahydrochloride]
LD50; given intraperitoneally
  LD50: 50 mg/kg
LD50; given orally
  LD50: exceeds 1 g/kg
Lewis rats
  mean infarct (stroke) size, percentage of hemisphere area: 1.7%±0.2%
RAW 264.7 cells [1]; stimulated 8 hours previously, then exposed 10 minutes in arginine-free buffer, mean±std. err., n=3, read-out: I.C.50 for arginine uptake
  IC50: 60 ± 15 µM
RAW 264.7 cells [1]; unstimulated RAW 264.7
  sensitivity of arginine uptake of unstimulated cells: insensitive
MIP-1α
  concentration that effectively inhibited production of MIP-1α: 10 to 20 µM
RAW 264.7 cells [2]; dose 2 μM
  no2/no3 % suppression of induced production: 0%
RAW 264.7 cells [2]; dose 10 μM
  no2/no3 % suppression of induced production: 69%
RAW 264.7 cells [2]; dose 50 μM
  no2/no3 % suppression of induced production: 100%
RAW 264.7 cells [2]; dose 200 μM
  no2/no3 % suppression of induced production: 100%
RAW 264.7 cells [2]; exposed from 8 hours after stimulation, NO output during hours 12-24, mean±std. err., n=3, read-out: I.C.50 for NO output
  IC50: 20 ± 2 µM
